In ChEMBL document CHEMBL3297701, “Functionalization, cyclization and antiviral activity of A-secotriterpenoids” (Eur J Med Chem, 2014):

Legend:
in vitro = conditions: chicken, primary chicken embryo cells
[1] = microbe, parasite or virus in culture; format: functional, Influenza A virus (A/ts1/1/A/FPV/Rostock/1934(H7N1)); conditions: Influenza A virus, 36 h
[2] = Selectivity ratio of MTD for human MT-4 cells to EC50 for HIV-1 zmb infected in human MT-4 cells; format: ADME, cell-based, MT4
[3] = tested on: Human immunodeficiency virus 1; assay: Antiviral activity against HIV-1 zmb infected in human MT-4 cells after 72 hrs by MTT assay; format: functional, organism-based, MT4
[4] = Human immunodeficiency virus 1, zmb, MT4, 72 h, read-out: EC50

Compound | selectivity ratio (in vitro) | EC50 [1] [µM] | selectivity ratio [2] | EC50 [3, 4] [µM] | EC50 ([3]; mt4)
C=C(C)[C@@H]1CC[C@]2(C(=O)O)CC[C@]3(C)[C@H](CC[C@@H]4[C@@](C)(CC#N)[C@H](C(C)(C)C=O)CC[C@]43C)[C@@H]12 | 3.5 | 7.7 | – | – | –
C=C(C)[C@@H]1CC[C@]2(C(=O)OC)CC[C@]3(C)[C@H](CC[C@@H]4[C@@]5(C)C(C#N)=CC(C)(C)[C@@H]5CC[C@]43C)[C@@H]12 | – | – | 3.2 | 50.5 | –
CC1(C)C=C(C#N)[C@]2(C)[C@H]3CC[C@@H]4[C@H]5[C@H]6OC[C@@]5(CCC6(C)C)CC[C@@]4(C)[C@]3(C)CC[C@@H]12 | – | – | – | – | Not Active
C=C(C)[C@@H]1CC[C@]2(C(=O)O)CC[C@]3(C)[C@H](CC[C@@H]4[C@@](C)(CC#N)[C@H](C(C)(C)/C=N/O)CC[C@]43C)[C@@H]12 | 5.7 | 18.2 | 50 | 0.06 | –
C=C(C)[C@@H]1CC[C@]2(C(=O)OC)CC[C@]3(C)[C@H](CC[C@@H]4[C@@](C)(CC#N)[C@H](C(C)(C)/C=N/O)CC[C@]43C)[C@@H]12 | 35.4 | 22.7 | – | – | Not Active
CC(C)(/C=N/O)[C@@H]1CC[C@]2(C)[C@H](CC[C@@H]3[C@H]4[C@H]5OC[C@@]4(CCC5(C)C)CC[C@]32C)[C@@]1(C)CC#N | 7.2 | 58.7 | – | – | –
C/N=C/C(C)(C)[C@@H]1CC[C@]2(C)[C@H](C(=O)C=C3[C@@H]4C[C@@](C)(C(=O)OC)CC[C@]4(C)CC[C@]32C)[C@@]1(C)CC#N | 15.1 | 51.9 | – | – | –
C=C(C)[C@@H]1CC[C@]2(C(=O)OC)CC[C@]3(C)[C@H](CC[C@@H]4[C@@]5(C)C(C#N)=C(N)C(C)(C)[C@@H]5CC[C@]43C)[C@@H]12 | – | – | – | – | Not Active
CC1(C)CC[C@]23CC[C@]4(C)[C@H](CC[C@@H]5[C@@]6(C)C(C#N)=C(N)C(C)(C)[C@@H]6CC[C@]54C)[C@H]2[C@H]1OC3 | – | – | – | – | Not Active
C=C(C)[C@@H]1CC[C@]2(C(=O)O)CC[C@]3(C)[C@H](CC[C@@H]4[C@@]5(C)C/C(=N\O)C(=O)C(C)(C)[C@@H]5CC[C@]43C)[C@@H]12 | 64.1 | 12.9 | 51.5 | 0.06 | –
C=C(C)[C@@H]1CC[C@]2(C(=O)OC)CC[C@]3(C)[C@H](CC[C@@H]4[C@@]5(C)C/C(=N\O)C(=O)C(C)(C)[C@@H]5CC[C@]43C)[C@@H]12 | 4.1 | 98 | – | – | –
CC1(C)CC[C@]23CC[C@]4(C)[C@H](CC[C@@H]5[C@@]6(C)C/C(=N\O)C(=O)C(C)(C)[C@@H]6CC[C@]54C)[C@H]2[C@H]1OC3 | – | > 100 | – | – | –
C=C(C)[C@@H]1CC[C@]2(C(=O)O)CC[C@]3(C)[C@H](CC[C@@H]4[C@@]5(C)C/C(=N\O)[C@H](O)C(C)(C)[C@@H]5CC[C@]43C)[C@@H]12 | 6.8 | 31.5 | – | – | –
C=C(C)[C@@H]1CC[C@]2(C(=O)OC)CC[C@]3(C)[C@H](CC[C@@H]4[C@@]5(C)C/C(=N\O)[C@H](O)C(C)(C)[C@@H]5CC[C@]43C)[C@@H]12 | – | > 100 | – | – | –
CC1(C)CC[C@]23CC[C@]4(C)[C@H](CC[C@@H]5[C@@]6(C)C/C(=N\O)[C@H](O)C(C)(C)[C@@H]6CC[C@]54C)[C@H]2[C@H]1OC3 | – | > 100 | – | – | –
COC(=O)[C@@]1(C)CCC2(C)CC[C@]3(C)C(=CC(=O)[C@@H]4[C@@](C)(CC#N)[C@H](C(C)(C)C=O)CC[C@]43C)[C@@H]2C1 (single isomer, unassigned) | 15.1 | 53.5 | – | – | –
COC(=O)[C@@]1(C)CCC2(C)CC[C@]3(C)C(=CC(=O)[C@@H]4[C@@]5(C)C/C(=N\O)C(=O)C(C)(C)[C@@H]5CC[C@]43C)[C@@H]2C1 (single isomer, unassigned) | – | > 100 | – | – | –
COC(=O)[C@@]1(C)CCC2(C)CC[C@]3(C)C(=CC(=O)[C@@H]4[C@@]5(C)C/C(=N\O)[C@H](O)C(C)(C)[C@@H]5CC[C@]43C)[C@@H]2C1 (single isomer, unassigned) | 3.4 | 57.2 | – | – | –
